# Measured values as given in patent US10793557B2, “Sting agonist compounds” (Merck Sharp & Dohme Corp., priority 2018, dated 2020).
# Experiments:
# full-length HAQ STING = target: T1, full-length HAQ STING (Homo sapiens, UniProt Q86WV6, G230A/H232R/R293Q/R71H); assay: 3H-cGAMP filtration binding assay (HAQ STING); details: competition with tritiated cGAMP, HAQ STING membrane
# T1 construct: AviTag (after GG linker) (C); HRV3C cleavage site (after GS linker) (C); HIS8 (C); made in house; host or cells: Trichoplusia ni (Hi-Five) insect cells infected with baculovirus (virus generated and amplified in Sf21 cells); used as a washed membrane preparation
# T1 sequence (Q86WV6 with tags, fused parts or gaps R71H/G230A/H232R/R293Q): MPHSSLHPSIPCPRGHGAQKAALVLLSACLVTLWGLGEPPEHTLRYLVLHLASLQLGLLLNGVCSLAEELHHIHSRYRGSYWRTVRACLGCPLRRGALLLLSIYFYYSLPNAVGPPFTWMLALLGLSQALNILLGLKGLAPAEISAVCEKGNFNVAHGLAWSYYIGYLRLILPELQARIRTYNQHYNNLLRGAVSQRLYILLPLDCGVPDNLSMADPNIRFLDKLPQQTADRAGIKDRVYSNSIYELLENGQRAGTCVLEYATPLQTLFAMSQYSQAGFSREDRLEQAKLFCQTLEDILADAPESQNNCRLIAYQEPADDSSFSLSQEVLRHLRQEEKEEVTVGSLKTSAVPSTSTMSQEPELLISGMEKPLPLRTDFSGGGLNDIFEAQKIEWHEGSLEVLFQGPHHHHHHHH
# Source text: The ability of compounds to bind STING is quantified by the ability to compete with tritiated cGAMP ligand for human STING receptor membrane using a radioactive filter-binding assay. The binding assay employs STING receptor obtained from Hi-Five cell membranes overexpressing full-length HAQ STING prepared in-house and tritiated cGAMP ligand also purified in-house.
# (§1) The ability of compounds to bind STING is quantified by their ability to compete with tritiated cGAMP ligand for human STING receptor membrane using a radioactive filter-binding assay. The binding assay employs STING receptor obtained from Trichoplusia ni cell membranes (T. ni; Expression Systems, cat #94-002F, www.expressionsystems.com) overexpressing full-length HAQ STING and tritiated cGAMP ligand.
# The basic HAQ STING filtration assay protocol is as follows:
# The compounds were serially titrated by the Hamilton STARPlus CORE in a 96-well plate (Greiner, #651201) using a 1:3 ten-point dose response format. After compound preparation, a 2.2 ug/ml working concentration of STING membrane (SEQ. ID. No. 1) was prepared by diluting concentrated membrane into assay buffer (1×PBS; Invitrogen # SH30028.02) and douncing 7× using a manual tissue homogenizer (Wheaton, #357546). 148 uL of prepared membrane was then manually added to each well of a 96-well deep-well polypropylene plate (Fisher Scientific, #12-566-121). Following membrane addition, 2 uL of either titrated test compound, DMSO control (Sigma #276855), or cold cGAMP control was added to the appropriate wells using a BIOMEK FX. Compound and membrane then preincubated for 60 min at RT to allow compound binding to equilibrate. Following equilibration, 8 nM of [^3H]c-GAMP ligand was prepared by diluting into assay buffer, and 50 uL of this working stock was then manually added to each well of the assay plate. Plates were then incubated at RT for 60 min, and the contents of each assay plate were then filtered through a 96-well GF/B filter plate (PerkinElmer, #6005250) using a TOMTEC MACH III Cell Harvester equipped with 20 mM HEPES buffer (Fisher Scientific, # BP299500). The filter plates were then dried at 55° C. for 30 min using a pressurized oven before 30 uL of ULTIMA GOLD F scintillate was added to each well. Tritium levels for each reaction well were then measured using a PerkinElmer TopCount plate reader.
# (§2) After normalization to controls, the percent activity for each compound concentration was calculated by measuring the amount of remaining radioactivity. The plot of percent activity versus the log of compound concentration was fit with a 4-parameter dose response equation to calculate EC50 values.
# full-length WT STING = target: T2, full-length WT STING (Homo sapiens, UniProt Q86WV6, H232R); assay: 3H-cGAMP filtration binding assay (WT STING); details: competition with tritiated cGAMP, WT STING membrane
# T2 construct: AviTag (after gg linker) (C); HRV3C cleavage site (after gs linker) (C); HIS8 (C); made in house; host or cells: Trichoplusia ni (Hi-Five) insect cells infected with baculovirus (virus generated and amplified in Sf21 cells); used as a washed membrane preparation
# T2 sequence (Q86WV6 with tags, fused parts or gaps H232R): as the sequence (Q86WV6 with tags, fused parts or gaps R71H/G230A/H232R/R293Q) above, with H71R, A230G, Q293R counted along it
# Protocol: as §1, with “WT” for “HAQ”
# The basic WT STING filtration assay protocol is as follows:
# 16 nM of [^3H] c-GAMP ligand was prepared by diluting into assay buffer, and 50 uL of this working stock was manually added to each well of the assay plate. After ligand addition, 2 uL of either titrated test compound, DMSO control (Sigma #276855), or cold cGAMP control was added to the appropriate wells using a BIOMEK FX. The serially titrated compound was prepared on a Hamilton STARPlus CORE in a 96-well plate (Greiner, #651201) using a 1:3 ten-point dose response format. Following compound addition, a 2.2 ug/ml working concentration of STING membrane (SEQ. ID. No. 3) was prepared by diluting concentrated membrane into assay buffer (1×PBS; Invitrogen # SH30028.02) and douncing 7× using a manual tissue homogenizer (Wheaton, #357546). 148 uL of this prepared membrane was then manually added to each well of a 96-well deep-well polypropylene plate (Fisher Scientific, #12-566-121). Compound, ligand, and membrane then incubated for 60 min at RT before the contents of each assay plate were filtered through a 96-well GF/B filter plate (PerkinElmer, #6005250) using a TOMTEC MACH III Cell Harvester equipped with 20 mM HEPES buffer (Fisher Scientific, # BP299500). The filter plates were then dried at 55° C. for 30 min using a pressurized VWR oven before 30 uL of ULTIMA GOLD F scintillate was added to each well. Tritium levels for each reaction well were then measured using a PerkinElmer TopCount plate reader.
# as §2
# [1] = test system: secretion of interferon-beta from THP1 cells; assay: IFN-β secretion in THP1 cell culture (5 h); type: cell-based; details: Homo sapiens, THP-1, 5 h, compound at 30 μM, 30 uM cGAMP = 100%, read-out: % Effect at 30 μM relative to 2′3′-cGAMP
# Protocol: The ability of compounds to stimulate the secretion of interferon-beta from THP1 cells was measured using a human IFN-β AlphaLISA kit (Perkin Elmer, Cat. No. AL265F). The basic protocol is as follows:
# A Labcyte Echo 550 acoustic dispenser was used to transfer 120 nL of compound dissolved in DMSO into the wells of an empty, sterile 384-well microplate, (Corning, Cat. No. 3712). THP1 cells (American Type Culture Collection, Cat. No. TIB202) previously frozen in Recovery Medium (Life Technologies, Cat. No. 12648-010) were thawed and immediately diluted 10-fold into 37° C. assay medium (RPMI 1640+L-Glutamine & phenol red, Life Technologies, Cat. No. 11875-085; 0.5% heat inactivated fetal bovine serum, Sigma Aldrich, Cat. No. F4135; 1 mM Sodium Pyruvate, Life Technologies, Cat. No. 11360-070; 1× non-essential amino acids; Life Technologies, Cat. No. 11140-050). The cell viability and count was ascertained using a Beckman Coulter V-Cell XR cell counter. The cells suspension was centrifuged at 200×g for 5 min at RT. Cells were resuspended to a density of 0.8×10^6/mL in 37° C. assay medium. Subsequent liquid transfers were performed using either a Matrix electronic multichannel pipette or an Agilent Bravo Automated Liquid Handling Platform.
# The assay was started by dispensing 40 μL of the previously prepared cell suspension into the wells of the plate containing compounds. After 5 h incubation at 37° C., 5% CO2 in a humidified atmosphere, the plate of cells and compounds was centrifuged at 200×g for 5 min at RT. From each well, 5 μL of supernatant was transferred into corresponding wells of a white 384-well plate (Perkin Elmer, Cat. No. 6005620). To these supernatant-containing wells was added 10 μL of 5× Anti-Analyte Acceptor beads (50 μg/mL of AlphaLISA HiBlock Buffer) and incubated for 30 min at RT while shaking on an orbital plate shaker. To each well was added 10 μL of 5× Biotinylated Antibody Anti-analyte (5 nM in AlphaLISA HiBlock Buffer) and incubated on an orbital plate shaker for 60 min at RT or overnight at 4° C. To each well was added 25 μL of 2× SA-Donor beads (80 μg/mL in AlphaLISA HiBlock Buffer) and incubated for 30-45 min at RT in the dark while shaking on an orbital plate shaker. The plate was then read on a Perkin Elmer Envision (λex=680 nm, […]). The percent effect of the AlphaLISA signal at each compound concentration was calculated based on 30 uM cGAMP positive controls and 0.3% DMSO negative controls. The plot of percent effect versus the log of compound concentration was fit with a 4-parameter concentration response equation to calculate EC50 values. The test compounds were tested at concentrations 30000, 10000, 3333, 1111, 370.4, 123.4, 41.2, 13.7, 4.6, and 1.5 nM with 0.3% residual DMSO. The control compound, cGAMP was tested at concentrations 100000, 33333, 11111, 3704, 1235, 412, 137, 46, and 15 nM with 0.3% residual DMSO.
# Compounds of the disclosure were evaluated for IFN-β secretion in THP1 cell culture as described above. The following table tabulates the biological data for these compounds as percent activation relative to 2′3′-cGAMP at the 30 µM concentration.
Structure (SMILES),EC50 (full-length HAQ STING),EC50 (full-length WT STING),activation at 30 µM [1]
"COc1cc2sc(C(=O)C[C@H](C)C(=O)O)cc2nc1OCCOc1c(OC)cc2sc(C(=O)C[C@H](C)C(=O)O)cc2c1F (racemic) [Example 19, rac-(R)-4-(5-(2-((2-((R)-3-carboxybutanoyl)-4-fluoro-6-methoxybenzo[b]thiophen-5-yl)oxy)ethoxy)-6-methoxythieno[3,2-b]pyridin-2-yl)-2-methyl-4-oxobutanoic acid]",2 nM,9 nM,30%
"COc1cc2sc(C(=O)C[C@H](C)C(=O)O)cc2nc1OCCCOc1c(OC)cc2sc(C(=O)C[C@H](C)C(=O)O)cc2c1F (racemic) [Example 22, rac-(R)-4-(5-(3-((2-((R)-3-carboxybutanoyl)-4-fluoro-6-methoxybenzo[b]thiophen-5-yl)oxy)propoxy)-6-methoxythieno[3,2-b]pyridin-2-yl)-2-methyl-4-oxobutanoic acid]",1 nM,1 nM,48%
"COc1cc2sc(C(=O)C[C@H](C)C(=O)O)cc2cc1OCCOc1cc2sc(C(=O)C[C@H](C)C(=O)O)cc2cc1OC (racemic) [Example 57, rac-(R)-4-(5-(2-((2-((R)-3-carboxybutanoyl)-5-methoxybenzo[b]thiophen-6-yl)oxy)ethoxy)-6-methoxybenzo[b]thiophen-2-yl)-2-methyl-4-oxobutanoic acid]",92 nM,398 nM,15%
"COc1cc2sc(C(=O)C[C@H](C)C(=O)O)cc2cc1OCCCOc1cc2cc(C(=O)[C@H]3C[C@@H]3C(=O)O)sc2cc1OC (racemic) [Example 68, rac-(1R,2R)-2-(5-(3-((2-((R)-3-carboxybutanoyl)-6-methoxybenzo[b]thiophen-5-yl)oxy)propoxy)-6-methoxybenzo[b]thiophene-2-carbonyl)cyclopropane-1-carboxylic acid]",50 nM,443 nM,24%

# Second part, led by results:
EC50 (full-length HAQ STING),EC50 (full-length WT STING),Structure (SMILES),activation at 30 µM [1]
360 nM,9010 nM,"COc1cc2sc(C(=O)CCC(=O)O)cc2cc1CCCOc1c(OC)cc2sc(C(=O)[C@@H]3C[C@H]3C(=O)O)cc2c1F (relative stereo) [Example 85, trans-2-(5-(3-(2-(3-carboxypropanoyl)-6-methoxybenzo[b]thiophen-5-yl)propoxy)-4-fluoro-6-methoxybenzo[b]thiophene-2-carbonyl)cyclopropane carboxylic acid]",145%
3 nM,109 nM,"COc1cc2sc(C(=O)CCC(=O)O)cc2c(F)c1OCCCOc1c(OC)cc2sc(C(=O)[C@@H]3C[C@H]3C(=O)O)cc2c1F (relative stereo) [Example 88, trans-2-(5-(3-((2-(3-carboxypropanoyl)-4-fluoro-6-methoxybenzo[b]thiophen-5-yl)oxy)propoxy)-4-fluoro-6-methoxybenzo[b]thiophene-2-carbonyl)cyclopropane carboxylic acid]",152%
20 nM,69 nM,"COc1cc2sc(C(=O)C[C@H](C)C(=O)O)cc2c(F)c1OCCCOc1cc2sc(C(=O)[C@@H]3CC[C@H]3C(=O)O)cc2c(F)c1OC (single isomer, unassigned) [Example 97]",–
1 nM,–,"COc1cc2sc(C(=O)C[C@H](C)C(=O)O)cc2c(F)c1OCCCOc1c(OC)cc2sc(C(=O)[C@@H]3CC[C@H]3C(=O)O)cc2c1F [Example 98, trans-2-(5-(3-((2-((S)-3-carboxybutanoyl)-4-fluoro-6-methoxybenzo[b]thiophen-5-yl)oxy)propoxy)-4-fluoro-6-methoxybenzo[b]thiophene-2-carbonyl)cyclobutane carboxylic acid]",92%
1 nM,–,"COc1cc2sc(C(=O)C[C@H](C)C(=O)O)cc2c(F)c1OCCCOc1c(OC)cc2sc(C(=O)[C@@H]3CC[C@H]3C(=O)O)cc2c1F [Example 99, trans-2-(5-(3-((2-((S)-3-carboxybutanoyl)-4-fluoro-6-methoxybenzo[b]thiophen-5-yl)oxy)propoxy)-4-fluoro-6-methoxybenzo[b]thiophene-2-carbonyl)cyclobutane carboxylic acid]",–
